# From patent EP1200395B1, “UREA DERIVATIVES AS INHIBITORS OF CCR-3 RECEPTOR” (KIRIN BEER KABUSHIKI KAISHA, priority 1999, dated 2001)
# Target: T1, CCR-3 (Homo sapiens, UniProt P51677)
# T1 sequence (P51677 1-355): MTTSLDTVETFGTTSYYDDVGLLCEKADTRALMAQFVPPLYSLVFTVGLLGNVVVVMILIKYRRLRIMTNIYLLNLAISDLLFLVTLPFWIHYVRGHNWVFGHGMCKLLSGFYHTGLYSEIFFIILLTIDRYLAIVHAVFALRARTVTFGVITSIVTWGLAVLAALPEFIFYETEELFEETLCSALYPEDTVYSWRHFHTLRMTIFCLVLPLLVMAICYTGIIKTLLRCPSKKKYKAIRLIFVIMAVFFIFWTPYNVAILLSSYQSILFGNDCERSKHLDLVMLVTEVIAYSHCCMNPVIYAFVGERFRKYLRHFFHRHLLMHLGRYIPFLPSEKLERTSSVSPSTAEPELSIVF
# Test: Eotaxin-induced chemotaxis of CCR-3 transfectant cells (CCR3/U937)
# Type: cell-based
# Parameters: expressed in transfected cells; host or cells: U937
# Conditions: 10 µM test compound; eotaxin 1 x 10^-9 M; CCR3/U937 cells (Table 3a)
row,Chemotaxis Assay 10 µM (inhibition %) [%],SMILES
1,100,"COC(=O)CCCN(CCCNC(=O)Nc1ccc(Cl)c(Cl)c1)C1CCCc2ccccc21 (stereo not shown) [Compound 35, Methyl 4-[[3-(3,4-dichlorophenylureido)propyl](1,2,3,4-tetrahydro-1-naphthyl)amino]burylate]"
2,100,CCN(CCCNC(=O)Nc1ccccc1)CCc1cccc(Cl)c1 [Compound 233]
3,81,CC(=O)OCCN(CCCNC(=O)Nc1ccccc1)CCc1ccc(Cl)cc1 [Compound 244]
4,44,O=C(O)CCCN(CCCNC(=O)Nc1ccc(Br)cc1)CCC(c1ccccc1)c1ccccc1 [Compound 76]
5,97,CCCCN(CCCNC(=O)Nc1ccccc1)CCc1ccc(Cl)cc1 [Compound 14]
6,100,CS(=O)(=O)NC(=O)CCCN(CCCNC(=O)Nc1ccc(Br)cc1)C1CCCc2ccccc21 (stereo not shown) [Compound 210]
7,100,CC(c1ccc2ccccc2c1)N(CCCNC(=O)Nc1ccc(Br)cc1)CCCC(=O)O (stereo not shown) [Compound 270]
8,38,COC(=O)CCCN(CCCNC(=O)Nc1ccc(OC)cc1OC)C1CCCc2ccccc21 (stereo not shown) [Compound 55]
9,90,O=C(O)CCCN(CCCNC(=O)Nc1ccccc1Br)C1CCCc2ccccc21 (stereo not shown) [Compound 190]
10,100,COC(=O)CCCN(CCCNC(=O)Nc1cccc(C)c1)C1CCCc2ccccc21 (stereo not shown) [Compound 52]
11,69,O=C(O)CN(CCCNC(=O)Nc1ccc(Br)cc1)C1CCCc2ccccc21 (stereo not shown) [Compound 186]
12,100,Cc1cccc(NC(=O)NCCCN(CCCC(=O)O)C2CCCc3ccccc32)c1 (stereo not shown) [Compound 83]
13,94,CCN(CCCCCNC(=O)Nc1ccccc1)CCc1ccc(Cl)cc1 [Compound 8]
14,68,O=C(O)CCCN(CCCNC(=O)Nc1ccc(Br)cc1)CCc1ccccc1 [Compound 72]
15,100,COC(=O)CN(CCCNC(=O)Nc1ccccc1)CCc1ccc(Cl)cc1 [Compound 245]
16,95,"COC(=O)CCCN(CCCCCNC(=O)Nc1ccc(Br)cc1)C1CCCc2ccccc21 (stereo not shown) [Compound 33, Methyl 4-[[5-(4-bromophenylureido)penryl](1,2.3,4-tetrahvdro-1-naphthyl)amino]burylate]"
17,68,O=C(O)CCCN(CCCNC(=O)Nc1ccc(Br)cc1)C(Cc1ccccc1)c1ccccc1 (stereo not shown) [Compound 75]
18,31,O=C(O)CCCN(CCCNC(=O)Nc1ccc(Br)cc1)Cc1ccco1 [Compound 68]
19,76,O=C(NCCCN(CCc1ccc(Cl)cc1)Cc1ccccc1)Nc1ccccc1 [Compound 28]
20,50,CC(C)(Cc1ccccc1)N(CCCNC(=O)Nc1ccc(Br)cc1)CCCC(=O)O [Compound 207]
21,100,CC(=O)OCCCCN(CCCNC(=O)Nc1ccc(Br)cc1)C1CCCc2ccccc21 (stereo not shown) [Compound 202]
22,64,COC(=O)CCCN(CCCNC(=O)Nc1ccc(Br)cc1)C(C)(C)Cc1ccccc1 [Compound 206]
23,99,O=C(O)CCCCN(CCCNC(=O)Nc1ccc(Br)cc1)C1CCCc2ccccc21 (stereo not shown) [Compound 214]
24,100,"O=C(O)CCCN(CCCNC(=O)Nc1ccc(Br)cc1)C1CCc2ccccc21 (stereo not shown) [Compound 173, 4-[[3-(4-Bromopbenylureido)propyl](1-indanyl)amino]butanoic acid]"
25,60,COC(=O)CCCN(CCCNC(=O)Nc1ccccc1)CCc1ccc(Cl)cc1 [Compound 274]
26,100.,COC(=O)CCCN(CCCNC(=O)Nc1ccc(Oc2ccccc2)cc1)C1CCCc2ccccc21 (stereo not shown) [Compound 58]
27,100,COC(=O)CCCN(CCCNC(=O)Nc1ccc(OC)cc1)C1CCCc2ccccc21 (stereo not shown) [Compound 57]
28,100,"COC(=O)CCCN(CCCNC(=O)Nc1ccc(Br)cc1)[C@H](C)c1ccccc1 [Compound 30, Methyl 4-[[3-(4-bromophenylureido)propyl][(1R)-1-phenylethyl]-amino]butylate]"

# Same assay, conditions: 10 µM test compound; eotaxin 1 x 10^-9 M; CCR3/U937 cells (Table 3c)
row,Chemotaxis Assay 10 µM (inhibition %) [%],SMILES
1,100,CC[N+](CCCNC(=O)Nc1ccccc1)(CCc1ccc(Cl)cc1)Cc1ccc(Cl)c(Cl)c1.[I-] (stereo not shown) [compound 349]
2,100,CC[N+](CCCNC(=O)Nc1ccccc1)(CCc1ccc(Cl)cc1)Cc1ccc(C)c(C)c1.[I-] (stereo not shown) [compound 353]
3,100,CCCC[N+](CC)(CCCNC(=O)Nc1ccc(Br)cc1)CCc1ccc(Cl)cc1.[I-] (stereo not shown) [Compound 294]
4,100,CC[N+](CCCNC(=O)Nc1ccccc1)(CCc1ccc(Cl)cc1)Cc1cccc(C)c1.[I-] (stereo not shown) [compound 347]
5,100,CC[N+](CCCNC(=O)Nc1ccccc1)(CCc1ccc(Cl)cc1)Cc1ccc(C(=O)OC)cc1.[I-] (stereo not shown) [Compound 303]
6,100,CC[N+](CC)(CCCNC(=O)Nc1ccccc1)CCc1ccccc1Cl.[I-] [Compound 308]
7,100,CC[N+](CCCNC(=O)Nc1ccc(C#N)cc1)(CCc1ccc(Cl)cc1)Cc1ccccc1.[I-] (stereo not shown) [compound 326]
8,100,CC[N+](CCCO)(CCCNC(=O)Nc1ccccc1)CCc1ccc(Cl)cc1.[I-] (stereo not shown) [Compound 299]
9,100,CCC[N+](CC)(CCCNC(=O)Nc1ccc(Br)cc1)CCc1ccc(Cl)cc1.[I-] (stereo not shown) [Compound 295]
10,100,"CC[N+](CC)(CCCCCNC(=O)Nc1ccccc1)CCc1ccc(Cl)cc1.[I-] [Compound 323, [5-(Phenylureido)pentyl][2-(4-chlorophenyl)ethyl]diethylammanium iodide]"
11,100,CC[N+](CCCNC(=O)Nc1ccccc1)(CCc1ccc(Cl)cc1)Cc1cccc(Oc2ccccc2)c1.[I-] (stereo not shown) [compound 333]
12,100,CC[N+](CCCNC(=O)Nc1ccccc1)(CCc1ccc(Cl)cc1)Cc1cc2c(cc1Cl)OCO2.[I-] (stereo not shown) [compound 348]

# Same assay, conditions: U-937; 10 µM test compound; eotaxin 1 x 10^-9 M; CCR3/U937 cells (Table 3a)
row,inhibition at 10 µM [%],SMILES
1,98,"O=C(O)CCCN(CCCCNC(=O)Nc1ccc(Br)cc1)C1CCCc2ccccc21 (stereo not shown) [Compound 62, 4-[[4-(4-Bromophenylureido)butyl](1,2,3,4-tetrahydro-1-naphthyl)-amino]butanoic acid]"
2,100,"O=C(O)CCCN(CCCCCNC(=O)Nc1ccc(Br)cc1)C1CCCc2ccccc21 (stereo not shown) [Compound 63, 4-[[5-(4-Bromophenylureido)pentyl](1,2,3,4-tetrahydro-1-naphthyl)-amino]butanoic acid]"
3,50,COC(=O)CCCN(CCCNC(=O)Nc1ccc(Br)cc1)CCc1ccc(OC)c(OC)c1 [Compound 43]
4,87,"O=C(NCCCN(CCCc1nnnn1C(c1ccccc1)(c1ccccc1)c1ccccc1)C1CCCc2ccccc21)Nc1ccc(Br)cc1 (stereo not shown) [Compound 217, 3-[[3-(4-bromophenylureido)propyl](1,2,3,4-tetrahydro-1-naphthyl)amino]-1-[1-(triphenylmethyl)tetrazol-5-yl]propane]"
5,100,"O=C(NCCCN(CCCCO)C1CCCc2ccccc21)Nc1ccc(Br)cc1 (stereo not shown) [Compound 203, 4-[[3-(4-Bromophenylureido)propyl](1,2,3,4-tetrahydro-1-naphthyl)amino]-1-butanol]"

# Same assay, conditions: U-937; 10 µM test compound; eotaxin 1 x 10^-9 M; CCR3/U937 cells (Table 3c)
row,inhibition at 10 µM [%],SMILES
1,67,"Cc1ccc(C[N+](CCCNC(=O)Nc2ccccc2)(CCc2ccc(Cl)cc2)Cc2ccc(C)cc2)cc1 [Compound 296, [3-(Phenylureido)propyl][2-(4-chlorophenyl)ethyl]bis(4-methylbenzyl)ammonium iodide]"
2,100,"CC[N+](CCCNC(=O)Nc1ccccc1)(CCc1ccc(Cl)cc1)Cc1ccccc1 (stereo not shown) [Compound 302, [3-(Phenylureido)propyl][2-(4-chlorophenyl)ethyl](benzyl)ethylammonium iodide]"

# Same assay, conditions: test compound 0.1 µg/ml; eotaxin 1 x 10^-9 M; CCR3/U937 transfectants; 37 °C, 1 hour
row,Chemotaxis Assay 0.1 µg/ml (inhibition %) [%],SMILES
1,68,CC[N+](CCF)(CCCNC(=O)Nc1ccc(Br)cc1)CCc1ccc(Cl)cc1.[I-] (stereo not shown) [compound 381]
2,42,C=C(C)C[N+](CC)(CCCNC(=O)Nc1ccccc1)CCc1ccc(Cl)cc1.[I-] (stereo not shown) [compound 422]
3,46,CC[N+](CCCNC(=O)Nc1ccc(Br)cc1)(CCc1ccc(Cl)c(Cl)c1)CC1CCC1.[I-] (stereo not shown) [compound 377]
4,59,CC[N+](CCCNC(=O)Nc1ccccc1)(CCc1ccc(Cl)cc1)CC1CCC1.[I-] (stereo not shown) [compound 417]
5,44,C=C(C)C[N+](CC)(CCCNC(=O)Nc1ccccc1)CCc1ccccc1.[I-] (stereo not shown) [compound 426]
6,67,CCC(CC)C[N+](CC)(CCCNC(=O)Nc1ccccc1)CCc1ccc(Cl)cc1.[I-] (stereo not shown) [compound 427]
7,98,CC[N+](CCCNC(=O)Nc1ccccc1)(CCOCCOC)CCc1ccc(Cl)cc1Cl.[I-] (stereo not shown) [compound 414]
8,49,CC[N+](CCCNC(=O)Nc1ccc(Cl)c(Cl)c1)(CCOCCOC)CCc1ccccc1.[I-] (stereo not shown) [compound 359]
